Results from patent US6559157B2, “Dihydronaphthalene compounds” (Daiichi Pharmaceutical Co., Ltd., priority 1997, dated 2003).
pIC50: −log10 of the molar value.

System: Thromboxane A2 synthesis
Assay: Thromboxane A2 synthesis inhibiting activity test in citric acid-treated human whole blood
Type: cell-based
Details: inhibitor 50 μM, collagen-stimulated
Experimental: Measurement was done as follows according to the method of Rolf W. Hartmann et al. (Arch. Pharm. Pharm. Med. Chem., 329, 251, 1996). To 0.5 ml of citric acid-treated human whole blood were added 10 μl of an ethanol/K-Na-phosphate buffer solution (pH 7.4) containing a test compound, and the admixture was preincubated at 37° C. for 10 minutes. Dazoxybene hydrochloride (100 μM) was added to the blanks. Next, 50 μl of a collagen solution (final collagen concentration: 53.6 μg/ml) were added and incubation was continued at 37° C. for 10 minutes. The reaction was stopped by adding 0.4 ml of a 20% trichloroacetic acid solution in 0.6 M hydrochloric acid, and the admixture was centrifuged at 4400× g for 10 minutes. The resulting supernatant (0.5 ml) was fractionated and added to 0.5 ml of a 0.53% thiobarbituric acid solution (solvent: K-Na-phosphate buffer (pH 7.4)), and the admixture was heated for 70 minutes and then allowed to stand at room temperature for 30 minutes. This sample was measured by a fluorophotometer (excitation wave length: 533 nm, measurement wave length: 550 nm). Control samples without test compounds were tested in the same manner. The inhibiting activity (%) was calculated from the measurements using formula 1.
Enzyme source: Citric acid-treated human whole blood
Inhibitor concentration: 50 μM (inhibiting activity (%) was calculated)
Substrate concentration: 25 μM (progesterone)

SMILES | inhibition at 50 µM
CC1=C(Cc2ccncc2)CCc2ccccc21 [Example 19] | 25%
COc1cccc2c1CCC(Cc1ccncc1)=C2C [Example 20] | 60%
COc1ccc2c(c1)CCC(Cc1ccncc1)=C2C [Example 21] | 43%

System: not given
Assay: not given
Details: not given

melting point | SMILES
139.5 to 141 °C | CCOc1ccc2c(c1)C(=O)C(=Cc1c[nH]cn1)CC2 [Example 68]
111.5 to 113.5 °C | CCC1=C(Cc2c[nH]cn2)CCc2ccc(OC)cc21 [Example 54]
194 to 195 °C | COc1cccc2c1CCC(=Cc1c[nH]cn1)C2=O [Example 50]
200 to 202 °C | COc1cccc2c1CCC(Cc1c[nH]cn1)=C2c1ccccc1 [Example 60]
114.5 to 115 °C | CC(C)COc1ccc2c(c1)CCC(Cc1c[nH]cn1)C2=O (centres unmarked) [Example 77]
132 to 134 °C | CCOc1cccc2c1CCC(Cc1c[nH]cn1)C2=O (centres unmarked) [Example 65]
156.5 to 158 °C | CCCOc1ccc2c(c1)CCC(=Cc1c[nH]cn1)C2=O [Example 73]
122.5 to 123 °C | COc1ccc2c(c1)CCC(Cc1c[nH]cn1)=C2Cc1ccccc1 [Example 61]
134.5 to 136 °C | CCCOc1ccc2c(c1)CCC(Cc1c[nH]cn1)C2=O (centres unmarked) [Example 74]
133.5 to 134.5 °C | CCOc1ccc2c(c1)CCC(=Cc1c[nH]cn1)C2=O [Example 66]
170.5 to 171.5 °C | CCOc1ccc2c(c1)C(C)=C(Cc1c[nH]cn1)CC2.Cl [Example 72]
192.5 to 194.5 °C | COc1cccc2c1CCC(Cc1c[nH]cn1)=C2.Cl [Example 62]
201.5 to 202.5 °C | COc1ccc2c(c1)CCC(Cc1c[nH]cn1)=C2c1ccccc1 [Example 58]
132.5 to 135 °C | COc1cccc2c1CCC(Cc1c[nH]cn1)=C2C [Example 52]
133.5 to 136 °C | CCOc1cccc2c1CCC(Cc1c[nH]cn1)=C2C [Example 70]
155.5 to 156.5 °C | COc1ccc2c(c1)C=C(Cc1c[nH]cn1)CC2 [Example 63]
122 to 124 °C | CCOc1cccc2c1CCC(=Cc1c[nH]cn1)C2=O [Example 64]
164 to 166 °C | CCC1=C(Cc2c[nH]cn2)CCc2c(OC)cccc21.Cl [Example 55]
145.5 to 148 °C | COc1cccc2c1CCC(Cc1c[nH]cn1)C2=O (centres unmarked) [Example 51]
176.5 to 178.5 °C | CCOc1ccc2c(c1)C(=O)C(Cc1c[nH]cn1)CC2 (centres unmarked) [Example 69]
96 to 97 °C | CC1=C(Cc2c[nH]cn2)CCc2cc(OCC(C)C)ccc21 [Example 78]
138 to 141.5 °C | CCC1=C(Cc2c[nH]cn2)CCc2cc(OC)ccc21 [Example 53]
91.5 to 92 °C | CCCOc1ccc2c(c1)CCC(Cc1c[nH]cn1)=C2C [Example 75]
126 to 127 °C | CCOc1ccc2c(c1)CCC(Cc1c[nH]cn1)=C2C [Example 71]
198.5 to 199.5 °C | COc1ccc2c(c1)C(c1ccccc1)=C(Cc1c[nH]cn1)CC2 [Example 59]
174.5 to 175.5 °C | CCCC1=C(Cc2c[nH]cn2)CCc2c(OC)cccc21 [Example 57]
79 to 81.5 °C | CC(C)COc1ccc2c(c1)CCC(=Cc1c[nH]cn1)C2=O [Example 76]
123.5 to 124.5 °C | CCCC1=C(Cc2c[nH]cn2)CCc2cc(OC)ccc21 [Example 56]
143.5 to 144.5 °C | CCOc1ccc2c(c1)CCC(Cc1c[nH]cn1)C2=O (centres unmarked) [Example 67]

Biological target: T1, Aromatase (Homo sapiens, UniProt P11511)
T1 construct: Aromatase was prepared from the microsome fraction of human placenta tissue; from tissue; host or cells: human placenta (microsome fraction)
T1 sequence (P11511 1-503): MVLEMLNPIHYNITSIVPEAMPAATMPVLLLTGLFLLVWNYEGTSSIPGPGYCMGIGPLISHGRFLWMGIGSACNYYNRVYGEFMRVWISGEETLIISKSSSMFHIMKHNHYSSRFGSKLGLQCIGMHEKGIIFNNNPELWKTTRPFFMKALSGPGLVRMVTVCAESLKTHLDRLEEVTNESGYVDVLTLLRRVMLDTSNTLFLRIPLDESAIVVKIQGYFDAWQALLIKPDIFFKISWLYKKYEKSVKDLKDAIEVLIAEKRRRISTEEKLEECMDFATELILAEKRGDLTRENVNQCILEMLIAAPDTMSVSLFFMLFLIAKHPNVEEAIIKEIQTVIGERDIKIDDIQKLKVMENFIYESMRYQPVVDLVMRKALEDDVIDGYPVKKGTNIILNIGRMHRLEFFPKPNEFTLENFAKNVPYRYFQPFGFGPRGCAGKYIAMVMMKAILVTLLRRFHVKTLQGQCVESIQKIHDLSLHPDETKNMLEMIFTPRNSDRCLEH
Assay: Aromatase inhibiting activity test, human placenta microsomes
Type: biochemical
Details: inhibitor 25 μM, testosterone 2.5 μM, NADPH 250 μM
Experimental: Measurement was done according to the method of Rolf W. Hartmann and Christine Batzl (J. Med. Chem., 29, 8, 1368, 1986).
Aromatase was prepared from the microsome fraction of human placenta tissue according to the method of Thompson and Siiteri (J. Biol. Chem., 249, 5346, 1974). Microsomes obtained were suspended in a phosphate buffer solution (0.05 M, pH 7.4) and stored at −30° C.
Enzyme activity was evaluated by measuring the amount of ^3H2O produced by [1β, 2β-^3H] testosterone during the reaction according to the methods of Foster A. B. et al. (Foster A. B. et al., J. Med. Chem., 26, 50, 1983) and Graves P. E. and Salhanick H. A. (Endocrinology, 105, 52, 1979) as follows. To a test tube containing 0.225 μCi of [1β, 2β-^3H]testosterone were added 5 μM unlabeled testosterone, 2 mM NADPH, 20 mM glucose-6-phosphate, 1EU of glucose-6-phosphate dehydrogenase, and a test compound (0-250 μM) dissolved in phosphate buffer (0.05 M, pH 7.4). The test compound was dissolved in ethanol and diluted with the phosphate buffer. The final ethanol concentration in a reaction solution of the control and the test compound was 2%. This test tube was preincubated in a water bath at 30° C. for 5 minutes. Next, 0.5 mg of the microsome enzyme was added to start the reaction. The total volume of the reaction solution was 0.5 ml. Water phase portions (100 μl) were taken 0, 7, 14, and 21 minutes after the start of the reaction and added to 200 μl of cold 1 mM HgCl2. To this were added 200 μl of a 2% dextran-treated activatd charcoal (DCC) suspension. The admixture was shaken for 20 minutes and then centrifuged at 1500× g for 5 minutes to isolate the steroid adsorbed on DCC. The amount of the produced ^3H2O in the fractionated supernatant was counted by a liquid scintillation counter. Control samples with no test compound were tested in the same manner. The inhibiting activity (%) was calculated from the measurement using calculation formula 1.
Enzyme source: Human placenta microsomes
Inhibitor concentration: 25 μM (inhibiting activity (%) was calculated)
Substrate concentration: 2.5 μM (testosterone)
NADPH concentration: 250 μM

inhibition at 25 µM | SMILES
61% | COc1ccc2c(c1)C(C)=C(Cc1cccnc1)CC2 [Example 18]
52% | COc1ccc2c(c1)CCC(Cc1cccnc1)=C2C [Example 17]
37% | CC1=C(Cc2cccnc2)CCc2cc(O)ccc21 [Example 24]
50% | COc1cccc2c1CCC(Cc1cccnc1)=C2C [Example 16]
60% | CC1=C(Cc2cccnc2)CCc2c(O)cccc21 [Example 23]
56% | CC1=C(Cc2cccnc2)CCc2ccccc21 [Example 15]

Same assay, conditions: testosterone 2.5 μM, NADPH 250 μM

pIC50 | SMILES
5.89 | CC1=C(Cc2ccncc2)CCc2cc(O)ccc21 [Example 27]
5.19 | CC1=C(Cc2cccnc2)CCc2ccc(O)cc21 [Example 25]
5.77 | COc1ccc2c(c1)C=C(Cc1ccncc1)CC2 [Example 43]
6.02 | CCC1=C(Cc2ccncc2)CCc2c(OC)cccc21 [Example 37]
6.64 | CC1=C(Cc2ccncc2)CCc2ccccc21 [Example 19]
6.10 | CCC1=C(Cc2ccncc2)CCc2cc(OC)ccc21 [Example 38]
5.92 | CC1=C(Cc2ccncc2)CCc2ccc(O)cc21 [Example 28]
6.15 | CC1=C(Cc2ccncc2)CCc2c(O)cccc21 [Example 26]
5.74 | COc1ccc2c(c1)CCC(Cc1c[nH]cn1)=C2 [Example 46]
5.46 | Oc1ccc2c(c1)CCC(Cc1ccncc1)=C2 [Example 45]
6.10 | COc1ccc2c(c1)CCC(Cc1ccncc1)=C2 [Example 42]
5.92 | CCOc1ccc2c(c1)C(C)=C(Cc1c[nH]cn1)CC2 [Example 40]
5.89 | CCC1=C(Cc2ccncc2)CCc2ccc(OC)cc21 [Example 39]
6.42 | COc1cccc2c1CCC(Cc1ccncc1)=C2C [Example 20]
6.02 | COc1cccc2c1CCC(Cc1ccncc1)=C2 [Example 41]
6.07 | CCCC1=C(Cc2ccncc2)CCc2cc(OC)ccc21 [Example 44]
6.19 | COc1ccc2c(c1)CCC(Cc1ccncc1)=C2C [Example 21]
6.20 | COc1ccc2c(c1)C(C)=C(Cc1ccncc1)CC2 [Example 22]
